The test system of one data set is MES-SA cells. Nature of the data set: Cell cycle analysis, MES-SA. It counts as cell-based, human. To be noted: for G0/G1 / G2/M / S: MES-SA. How it is done:
(§1) Cell cycle arrest in S-phase has been observed for Triapine analogues at concentrations ranging from 0.25 to 5.0 μM,[82],[83] in line with a mechanism of action relying on RNR inhibition.
(§2) Figure S18. Cell cycle arrest for (a) proligand H2L4 and (b) complex 4 in MES-SA cells, as
(§3) well as for (c) proligand H2L4 and (d) complex 4 in the MES-SA/Dx5 cancer cell line.
(§4) Table S4. Cell cycle arrest for proligand H2L4 and complex 4 in the MES-SA and MES-
(§5) SA/Dx5 cancer cell lines.
(§6) H2L4 (MES-SA) H2L4 (MES-SA/Dx5) complex 4 (MES-SA) complex 4 (MES-SA/Dx5)
(§7) Table S5. Cell cycle arrest for proligand H2L6 and complex 6 in the MES-SA and MES-
(§8) H2L6 (MES-SA) H2L6 (MES-SA/Dx5) complex 6 (MES-SA) complex 6 (MES-SA/Dx5)
(§9) (1 picture or pasted object on this page, not shown here)

The test system of another data set is MES-SA/Dx5 cells. As to the kind of experiment: Cell cycle analysis, MES-SA/Dx5. The data set is classed as cell-based, human. As to the method:
as §1, §2, §3, §4, §5, §6, §7, §8, §9

A short description of data set [1]: pKa of the copper(II) complexes (UV–vis / pH-potentiometric titrations). To be noted: 30% (v/v) DMSO/H2O, 25 °C.
Method: The solution speciation of copper(II) complexes with H2L^3–H2L^6 was studied primarily by UV–vis spectrophotometric titrations in a 30% (v/v) DMSO/H2O solvent mixture as a function of pH.
An Agilent Carry 8454 diode array spectrophotometer was used to record the UV–vis spectra in the interval 200–800 nm. The path length was 1 cm. Proton dissociation constants (pKa) of the proligands and complexes were calculated by the computer program PSEQUAD.[94] Spectrophotometric titrations were performed on samples containing the proligands at a 50–100 μM concentration with a KOH solution in the presence of 0.1 M KCl at 25.0 ± 0.1 °C in the pH range from 2 to 11.5 in a 30% (v/v) DMSO/H2O solvent mixture, and the metal-to-ligand ratios were 1:0, 1:1, and 1:2. An Orion 710A pH meter equipped with a Metrohm combined electrode (type 6.0234.100) and a Metrohm 665 Dosimat buret were used for the titrations. […] Ar was also passed over the solutions during the titrations. Measurements were carried out in the range ca. 1.0–2.0 by preparing individual samples, in which KCl was partially or completely replaced by HCl, and pH values were calculated from the strong acid content. The conditional stability constants (K′) of the copper(II) complexes were calculated at pH 5.90 based on the spectral changes via the displacement reaction with EDTA in the presence 50 mM MES and 0.1 M KCl in water or in 30% (v/v) DMSO/H2O. In the competition experiments, the samples contained 25 μM copper(II) and 25 μM proligand, and the concentration of EDTA was varied from 0 to 400 μM. The conditional stability constants of the metal complexes (K′) and the individual spectra of the species were calculated by the computer program PSEQUAD.[94]
A short description of data set [2]: Conditional stability constants of the copper(II) complexes by EDTA displacement (UV–vis). It counts as physicochemical. To be noted: for logK′5.9 (DMSO/H2O) / logK′5.9 (H2O): EDTA displacement, UV–vis, 25 °C; for logK′5.9 (DMSO/H2O): pH 5.9, 30% (v/v) DMSO/H2O; for logK′5.9 (H2O): pH 5.9, water, I = 0.1 M (KCl); for pCu5.9 (=–log[Cu(II)]): calcd. at pH 5.9, cL = cCu(II) = 1 μM. How it is done: The stability constants of 3–6 were determined by EDTA competition experiments monitored by UV–vis spectrophotometry at pH 5.9, where the [Cu(HL)]^+ species is dominant. Since the displacement of the TSC ligand by EDTA is relatively slow, a 2 h reaction time was used to reach equilibrium. Upon increasing the concentration of EDTA, the absorbance of the characteristic S → Cu charge transfer band at 400–416 nm decreased (see, for example, Figure 3 for the copper(II)–H2L^4 (1:1) system).[68] The experiments were performed in both aqueous solution and the 30% (v/v) DMSO/H2O solvent mixture. The determined conditional (apparent) formation constants (log K′5.9) are rather similar (see Table 2) in both media. However, the values are lower in the DMSO/H2O solvent mixture than in aqueous solution, presumably due to coordination of DMSO to copper(II). An analogous observation was reported for the copper(II) complex of Triapine.[67] […] To compare the copper(II) binding ability of the studied TSCs H2L^3–H2L^6 at pH 5.9 (at which the conditional constants were determined), pCu (−log [Cu(II)]) values were also computed using the experimentally determined equilibrium constants (Table 2). The higher pCu value indicates a stronger metal ion binding ability of the ligand under given circumstances. The ligands form complexes with fairly similar stability, in agreement with the conditional stability constants. […] A similar behavior was reported for aqueous solutions of the N-terminally dimethylated derivative of the 2-pyridinecarboxaldehyde TSC (PTSC)[69] and for the corresponding morpholine-hybrid Morph-dm-FTSC.[52] In particular, the calculated pCu values were also very close, 13.17 for PTSC vs 13.08 for Morph-dm-FTSC calculated at pH 7.4.
The path length was 1 cm.

Where [3] appears, read: cell line not given (figures: MES-SA and MES-SA/Dx5).

Molecules are shown by their SMILES.

Consider `Cc1cc(NC(=NN=Cc2cc(CN3CCOCC3)ccn2)[S][Cu][Cl])cc(C)c1O` [complex 4, [Cu(HL^4)Cl]·1.5H2O], for which the G0/G1 in the data set with MES-SA cells (2 µM) stood at 63%; in the data set with MES-SA cells (4 µM) it was 56%; with MES-SA cells (8 µM), 50%; in the data set on MES-SA/Dx5 cells (MES-SA/Dx5, 2 µM), 48%; with MES-SA/Dx5 cells (MES-SA/Dx5, 4 µM), 43%; in the data set on MES-SA/Dx5 cells (MES-SA/Dx5, 8 µM), 47%. Further, the G2/M is 21% in the data set on MES-SA cells (2 µM); 25% with MES-SA cells (4 µM); 30% with MES-SA cells (8 µM); 32% in the data set with MES-SA/Dx5 cells (MES-SA/Dx5, 2 µM); 36% with MES-SA/Dx5 cells (MES-SA/Dx5, 4 µM); 36% in the data set with MES-SA/Dx5 cells (MES-SA/Dx5, 8 µM). Further, the S is listed as 16% with MES-SA cells (2 µM); 19% with MES-SA cells (4 µM); 20% in the data set with MES-SA cells (8 µM); 20% with MES-SA/Dx5 cells (MES-SA/Dx5, 2 µM); 21% in the data set on MES-SA/Dx5 cells (MES-SA/Dx5, 4 µM); 16% in the data set with MES-SA/Dx5 cells (MES-SA/Dx5, 8 µM). Also, the cell cycle effect entry in the data set on MES-SA cells (setting [3]) is given as “gradually increased the G2/M ratio in a concentration-dependent manner”. Further, the “pKa[Cu(H2L)]2+” value in data set [1] (UV–vis spectrophotometry) came to 4.48 ± 0.01; in data set [1] (pH potentiometry) it was 4.60 ± 0.02. The “logK′5.9 (DMSO/H2O)” value in data set [2] was determined as 10.07 ± 0.01. Besides, the “logK′5.9 (H2O)” value in data set [2] was 13.35 ± 0.02. The “pCu5.9 (=–log[Cu(II)])” value in data set [2] is 8.06.
As for `Cc1cc(NC(=NN=Cc2ccc(CN3CCOCC3)cn2)[S][Cu][Cl])cc(C)c1O` [complex 5, [Cu(HL^5)Cl]·2.5H2O], the “pKa[Cu(H2L)]2+” value in data set [1] (UV–vis spectrophotometry) stood at 4.75 ± 0.01. The “pKa[Cu(H2L)]2+” value in data set [1] (pH potentiometry) amounted to 4.95 ± 0.04. In addition, in data set [2], the “logK′5.9 (DMSO/H2O)” value is listed as 9.99 ± 0.01, the “logK′5.9 (H2O)” value is on record as 13.39 ± 0.01 and the “pCu5.9 (=–log[Cu(II)])” value is on record as 8.02.
For `Cc1cc(NC(=NN=Cc2cccc(CN3CCOCC3)n2)[S][Cu][Cl])cc(C)c1O` [complex 6, [Cu(HL^6)Cl]·H2O], the G0/G1 in the data set with MES-SA cells (2 µM) was 74%; with MES-SA cells (4 µM) it was 35%; with MES-SA cells (8 µM) it was 24%; with MES-SA/Dx5 cells (MES-SA/Dx5, 2 µM), 53%; in the data set on MES-SA/Dx5 cells (MES-SA/Dx5, 4 µM), 39%; in the data set with MES-SA/Dx5 cells (MES-SA/Dx5, 8 µM), 21%. Further, the G2/M in the data set on MES-SA cells (2 µM) was 17%; with MES-SA cells (4 µM), 55%; in the data set with MES-SA cells (8 µM), 68%; in the data set on MES-SA/Dx5 cells (MES-SA/Dx5, 2 µM), 35%; with MES-SA/Dx5 cells (MES-SA/Dx5, 4 µM) it was 48%; in the data set with MES-SA/Dx5 cells (MES-SA/Dx5, 8 µM), 68%. Moreover, the S is recorded as 9% with MES-SA cells (2 µM); 11% with MES-SA cells (4 µM); 8% with MES-SA cells (8 µM); 12% with MES-SA/Dx5 cells (MES-SA/Dx5, 2 µM); 12% with MES-SA/Dx5 cells (MES-SA/Dx5, 4 µM); 11% in the data set on MES-SA/Dx5 cells (MES-SA/Dx5, 8 µM). Further, the “concentrations inducing G2/M-phase arrest” value in the data set with MES-SA cells (setting [3]) was no less than 4 µM. In addition, in data set [2], the “logK′5.9 (DMSO/H2O)” value amounted to 10.09 ± 0.04. The “logK′5.9 (H2O)” value in data set [2] came to 13.73 ± 0.02. For the same compound, the “pCu5.9 (=–log[Cu(II)])” value in data set [2] is reported as 8.07.
